In one test the target is BChE (from human serum) (Homo sapiens, UniProt P06276). Description: In vitro cholinesterase inhibition assay. The class given is biochemical.
In a further test the target is BChE (Homo sapiens, UniProt P06276). Description: Kinetic study of BChE inhibition. Type of test: biochemical.

“Also recorded” adds a separate entry of the source.

By IC50 is commonly meant the point on the concentration scale where inhibition reaches its midpoint. Lower therefore signals inhibition by little substance. What is called Ki is the dissociation constant of the complex between target and ligand, obtained from inhibition or displacement. Lower therefore signals a stronger hold on the target.

Chain of BChE (P06276 29-602): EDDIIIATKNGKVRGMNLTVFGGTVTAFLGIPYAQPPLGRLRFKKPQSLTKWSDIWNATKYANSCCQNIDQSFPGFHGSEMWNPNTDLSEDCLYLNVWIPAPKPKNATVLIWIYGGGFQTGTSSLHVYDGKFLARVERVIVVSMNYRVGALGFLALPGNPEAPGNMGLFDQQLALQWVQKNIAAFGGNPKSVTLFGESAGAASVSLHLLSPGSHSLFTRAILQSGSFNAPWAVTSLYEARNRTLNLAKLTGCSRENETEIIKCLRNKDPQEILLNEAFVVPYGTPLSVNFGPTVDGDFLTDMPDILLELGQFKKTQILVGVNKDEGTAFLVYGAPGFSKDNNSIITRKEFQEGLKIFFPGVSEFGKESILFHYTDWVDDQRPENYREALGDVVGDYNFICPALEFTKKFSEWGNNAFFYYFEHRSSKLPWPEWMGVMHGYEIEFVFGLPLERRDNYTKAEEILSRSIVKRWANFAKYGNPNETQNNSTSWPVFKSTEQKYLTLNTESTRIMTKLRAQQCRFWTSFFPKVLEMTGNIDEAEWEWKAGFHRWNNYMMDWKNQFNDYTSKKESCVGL
Chain of BChE (from human serum) (P06276 29-602): as above

On BChE (from human serum), `O=C1CN(C(=O)CCn2ccnc2)CC(O)CN1CCc1ccccc1` (centres unmarked) [Compound 5, 4-(3-(1H-imidazol-1-yl)propanoyl)-6-hydroxy-1-phenethyl-1,4-diazepan-2-one] registered a half-maximal inhibitory concentration (IC50) of 1.4 µM. The inhibition at 10 µM at BChE (from human serum) (read-out: BChE IR (%), inhibition ratio) came out at 66%. For the same compound, on BChE, affinity was put at a Ki of 0.54 ± 0.07 µM and the “Type of BChE inhibition” value is listed as “mixed-type inhibitor; also recorded: mixed-type inhibition”. In addition, the “Inhibition constant Ki, uncompetitive part (Kiu)” value at BChE (substrate BTC 90-904 μM) was found to be 2.9 ± 1.0 µM.

(Values after publication PMC7324897 (Dose-Response, 2020).)
